Measurements reported in US6875761B2 (Eisai Co., Ltd., priority 1997, dated 2005).
Structures can show the parent of a compound that is named as a salt.

Biological target: T1, serotonin 2 receptor (Rattus norvegicus, UniProt P14842)
T1 construct: To the receptor fraction of the cerebral cortex were added a test compound and 0.3 nM of [^3H] ketanserin; from tissue; host or cells: rat cerebral cortex membrane fraction
Experiment: Binding test on [3H] ketanserin, cerebral cortex receptor fraction
Set-up: species or system SD rats
Details: 0.3 nM [3H] ketanserin, 37° C. 15 min, read-out: 5HT2
Procedure: Methysergide maleate was dissolved in distilled water before using.
Use was made of SD rats aged 6 to 8 weeks.
The rats were sacrificed by dcapitation to extirpate the cerebra.
Each mixture was homogenized by using a Teflon glass homogenizer and centrifuged as 1,000× g for 10 min. The supernatant thus obtained was further centrifuged at 20,000× g for 20 min. […] After centrifuging at 20,000× g for 20 min, the obtained precipitate was further suspended and centrifuged twice each in the same manner. […] This receptor fraction was stored at −80° C. until using.
To the receptor fraction of the cerebral cortex were added a test compound and 0.3 nM of [^3H] ketanserin and the resultant mixture was incubated at 37° C. for 15 min. Next, it was filtered through a glass filter with the use of a cell harvester. After washing the glass filter with 50 mM Tris hydrochloride (pH 7.4), the radioactivity of the receptor was measured with a liquid scintillation counter. The binding detected in the presence of 1 μM of methysergide was referred to as the nonspecific binding.
IC50 was calculated by the probit method, while Ki was determined in accordance with the following formula: Ki=IC50(1+c/Kd) wherein c represents the concentration of the radioisotope-labeled compound, and Kd represents the dissociation constant of the radioisotope-labeled compound with respect to the receptor determined by Scatchard's analysis.

T1 sequence (P14842 whole entry): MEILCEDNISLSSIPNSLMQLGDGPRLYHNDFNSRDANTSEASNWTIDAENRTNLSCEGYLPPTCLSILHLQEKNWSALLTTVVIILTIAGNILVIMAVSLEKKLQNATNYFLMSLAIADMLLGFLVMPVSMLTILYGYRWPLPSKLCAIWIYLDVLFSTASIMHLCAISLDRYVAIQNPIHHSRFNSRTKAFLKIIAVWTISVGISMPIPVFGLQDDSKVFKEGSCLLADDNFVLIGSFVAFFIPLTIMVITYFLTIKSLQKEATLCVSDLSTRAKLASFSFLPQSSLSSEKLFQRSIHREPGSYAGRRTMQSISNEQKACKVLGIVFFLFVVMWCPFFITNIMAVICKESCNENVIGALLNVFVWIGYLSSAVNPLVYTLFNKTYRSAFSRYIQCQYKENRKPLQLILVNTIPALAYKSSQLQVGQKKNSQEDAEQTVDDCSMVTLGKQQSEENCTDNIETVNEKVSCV

Going from `CCN1CCN(c2nc(-c3ccc(OCC4OCCO4)cc3)cc3sccc23)CC1` [Example 460, 4-(4-ethylpiperazin-1-yl)-6-[4-(1,3-dioxolan-2-yl)methoxyphenyl]thieno[3,2-c]pyridine oxalate] to `CCN1CCN(c2nc(-c3ccc(OCCCO)cc3)cc3sccc23)CC1` [Example 462, 4-(4-ethylpiperazin-1-yl)-6-[4-(3-hydroxypropoxy)phenyl]thieno[3,2-c]pyridine dihydrochloride], the Ki falls from 175 nM to 2.84 nM (62-fold).

`CCN1CCN(c2nc(-c3ccc(C#CCO)cc3)cc3sccc23)CC1` [Example 464, 4-(4-ethylpiperazin-1-yl)-6-[4-(3-hydroxy-1-propynyl)phenyl]thieno[3,2-c]pyridine pyridine] and `CCN1CCN(c2nc(-c3ccc(C#CC(C)(C)O)cc3)cc3sccc23)CC1` [Example 466, 4-(4-ethylpiperazin-1-yl)-6-[4-(3-hydroxy-3-methyl-1-butynyl)phenyl]thieno[3,2-c]pyridine oxalate] are within 1.5-fold of each other in Ki: 1.4 nM for the first, 1 nM for the second.

Going from `CCN1CCN(c2nc(-c3ccc(CCCO)cc3)cc3sccc23)CC1` [Example 465, 4-(4-ethylpiperazin-1-yl)-6-[4-(3-hydroxypropy)phenyl]thieno[3,2-c]pyridine dihydrochloride] to `CCN1CCN(c2nc(-c3ccc(OC)cc3)cc3ccoc23)CC1` [Example 467, 7-(4-ethylpiperazin-1-yl)-5-(4-methoxyphenyl)furo[2,3-c]pyridine dihydrochloride], the Ki rises from 7.11 nM to 93.1 nM (13-fold).

Biological target: T2, serotonin 1A receptor (Rattus norvegicus, UniProt P19327)
T2 construct: To the receptor fraction of the hippocampus were added a test compound and 0.5 nM of [^3H]; 8-hydroxy-dipropylaminotetralin; from tissue; host or cells: rat hippocampus membrane fraction
T2 sequence (P19327 1-422): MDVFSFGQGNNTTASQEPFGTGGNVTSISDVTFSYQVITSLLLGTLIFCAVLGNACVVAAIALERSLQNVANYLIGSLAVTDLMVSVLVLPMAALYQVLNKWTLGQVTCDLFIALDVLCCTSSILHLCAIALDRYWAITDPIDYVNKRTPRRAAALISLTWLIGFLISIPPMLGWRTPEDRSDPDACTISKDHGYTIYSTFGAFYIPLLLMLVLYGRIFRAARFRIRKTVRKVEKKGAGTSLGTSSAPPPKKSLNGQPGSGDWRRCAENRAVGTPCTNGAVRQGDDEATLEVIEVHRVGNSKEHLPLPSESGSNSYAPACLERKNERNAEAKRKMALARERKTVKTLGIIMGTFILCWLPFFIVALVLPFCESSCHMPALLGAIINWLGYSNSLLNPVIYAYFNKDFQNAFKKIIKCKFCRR
Experiment: Binding test on [3H] 8-hydroxy-dipropylaminotetralin, hippocampus receptor fraction
Set-up: species or system SD rats
Details: rat hippocampus receptor fraction, 0.5 nM [3H] 8-OH-DPAT, room temperature 30 min; read-out: 5HT1

`CCN1CCN(c2nc(-c3ccc(OCC4OCCO4)cc3)cc3sccc23)CC1` [Example 460, 4-(4-ethylpiperazin-1-yl)-6-[4-(1,3-dioxolan-2-yl)methoxyphenyl]thieno[3,2-c]pyridine oxalate] and `CCN1CCN(c2nc(-c3ccc(OCCCO)cc3)cc3sccc23)CC1` [Example 462, 4-(4-ethylpiperazin-1-yl)-6-[4-(3-hydroxypropoxy)phenyl]thieno[3,2-c]pyridine dihydrochloride] are within 1.5-fold of each other in Ki: 5.32 nM for the first, 4.83 nM for the second.

`CCN1CCN(c2nc(-c3ccc(C#CCO)cc3)cc3sccc23)CC1` [Example 464, 4-(4-ethylpiperazin-1-yl)-6-[4-(3-hydroxy-1-propynyl)phenyl]thieno[3,2-c]pyridine pyridine] and `CCN1CCN(c2nc(-c3ccc(C#CC(C)(C)O)cc3)cc3sccc23)CC1` [Example 466, 4-(4-ethylpiperazin-1-yl)-6-[4-(3-hydroxy-3-methyl-1-butynyl)phenyl]thieno[3,2-c]pyridine oxalate] are within 1.5-fold of each other in Ki: 47.8 nM for the first, 49.8 nM for the second.

First: CCN1CCN(c2nc(-c3ccc(CCCO)cc3)cc3sccc23)CC1 [Example 465, 4-(4-ethylpiperazin-1-yl)-6-[4-(3-hydroxypropy)phenyl]thieno[3,2-c]pyridine dihydrochloride]
Second: CCN1CCN(c2nc(-c3ccc(OC)cc3)cc3ccoc23)CC1 [Example 467, 7-(4-ethylpiperazin-1-yl)-5-(4-methoxyphenyl)furo[2,3-c]pyridine dihydrochloride]
The Ki of the first is 3.3-fold lower: 6.28 nM for the first, 20.6 nM for the second.

Tested on: not given
Experiment: not given
Details: not given

First: CCN1CCN(c2nc(-c3cc(OC)ccc3OC)cc3ccccc23)CC1.Cl
Second: CCN1CCN(c2nc(-c3ccc(OC)cc3OC)cc3ccccc23)CC1 (as salt: hydrochloride) [Example 12, 3-(2,4-dimethoxyphenyl)-1-(4-ethylpiperazin-1-yl)isoquinolin Dihydrochloride]
The melting point of the first is higher: 189 to 191 °C for the first, 145 to 148 °C for the second.

Compared with `CCC1CCN(c2nc(-c3ccc(OC)cc3)cc3ccccc23)CC1.Cl`, `COc1ccc(-c2cc3ccccc3c(N3CCOCC3)n2)cc1.Cl` is higher in melting point: 109 to 114 °C for the first, 137 to 139 °C for the second.

First: COc1ccc(-c2cc3ccccc3c(NCCc3ccccn3)n2)cc1.Cl
Second: CCCN1CCN(c2nc(-c3ccc(OC)cc3)cc3ccccc23)CC1 (as salt: hydrochloride)
The melting point of the first is lower: 138 to 140 °C for the first, 220 to 226 °C for the second.

First: CCN1CCN(c2nc(-c3ccccc3O)cc3ccccc23)CC1.Cl
Second: CCN1CCN(c2nc(-c3ccccc3OC)cc3ccccc23)CC1 (as salt: hydrochloride)
The melting point of the first is higher: 228 to 230 °C for the first, 133 to 135 °C for the second.

First: CCN1CCN(c2nc(-c3cccc(OC)c3OC)cc3ccccc23)CC1 (as salt: hydrochloride)
Second: CCN1CCN(c2nc(-c3ccccc3OC)cc3ccc(OC)cc23)CC1 (as salt: hydrochloride)
The melting point of the first is lower: 122 to 123 °C for the first, 178 to 179 °C for the second.

First: CCN1CCN(c2nc(-c3nc(C)c(CCO)s3)cc3ccccc23)CC1 (as salt: hydrochloride)
Second: CCN1CCN(c2nc(-c3ccn(CCO)n3)cc3ccccc23)CC1 (as salt: hydrochloride)
The melting point of the first is higher: 149 to 154 °C for the first, 134 to 140 °C for the second.

First: CCN1CCN(c2nc(-c3csc(C4=CCOCC4)c3)cc3ccccc23)CC1 (as salt: hydrochloride)
Second: CCN1CCN(c2nc(-c3cccc(OC)c3)cc3ccccc23)CC1 (as salt: hydrochloride) [Example 9, 1-(4-ethylpiperazin-1-yl)-3-(3-methoxyphenyl)isoquinone Dihydrochloride]
The melting point of the first is higher: 190 to 193 °C for the first, 108 to 110 °C for the second.

`CCN1CCN(c2nc(-c3ccc(OC)cc3)cc3c(C)cccc23)CC1` (as salt: hydrochloride) and `CCN1CCN(c2nc(-c3ccc(OC)cc3)cc3cccc(C)c23)CC1` (as salt: hydrochloride) cannot be ordered by melting point: 249 to 253 °C for the first, 248 to 253 °C for the second.

First: CCN1CCN(c2nc(-c3ccc(OC)cc3)cc3cc(F)ccc23)CC1 (as salt: hydrochloride)
Second: CCN1CCN(c2nc(-c3ccc(OC)cc3)cc3cc(OC)ccc23)CC1 (as salt: hydrochloride)
The melting point of the first is lower: 131 to 135 °C for the first, 218 to 220 °C for the second.

First: CCN1CCN(c2nc(-c3ccc(OC)cc3)cc3ccc(C)cc23)CC1 (as salt: hydrochloride)
Second: CCN1CCN(c2nc(-c3ccc(OC)cc3)cc3cnccc23)CC1 (as salt: hydrochloride)
The melting point of the first is higher: 243 to 246 °C for the first, 157 to 160 °C for the second.

First: CCN1CCN(c2nc(-c3ccc(OCCO)cc3)cc3ccc(F)cc23)CC1 (as salt: hydrochloride)
Second: CCCN1CCN(c2nc(-c3ccc(OCCO)cc3)cc3ccccc23)CC1 (as salt: hydrochloride)
The melting point of the first is higher: 225 to 229 °C for the first, 220 to 225 °C for the second.

Compared with `CCN1CCN(c2nc(-c3ccccc3)cc3ccc(OC)cc23)CC1` (as salt: hydrochloride), `CCN1CCCN(c2nc(-c3ccc(OC)cc3)cc3ccccc23)CC1` (as salt: hydrochloride) is lower in melting point: 130 to 132 °C for the first, 124 to 125 °C for the second.

Compared with `CCN1CCN(c2nc(-c3ccc(OC)cc3)cc3cccc(OC)c23)CC1` (as salt: hydrochloride), `CCN1CCN(c2nc(-c3ccc(OC)c(OC)c3)cc3ccccc23)CC1` (as salt: hydrochloride) [Example 14, 3-(3,4-dimethoxyphenyl)-1-(4-ethylpiperazin-1-yl)isoquinoline Dihydrochloride] is lower in melting point: 237 to 241 °C for the first, 125 to 126.5 °C for the second.

Compared with `CCN1CCN(c2nc(-c3ccc(O)cc3)cc3sccc23)CC1` (as salt: hydrochloride), `CCN1CCN(c2nc(-c3ccc(C(=O)NC)cc3)cc3ccsc23)CC1` (as salt: hydrochloride) is lower in melting point: 173 to 175 °C for the first, 150.5 to 152 °C for the second.

First: COc1ccc(-c2cc3ccccc3c(N3CCN(CCC#N)CC3)n2)cc1 (as salt: hydrochloride)
Second: COc1ccc(-c2cc3ccccc3c(N3CCN(C)CC3)n2)cc1 (as salt: hydrochloride) [Example 2, 1-(1-methylpiperazin-4-yl)-3-(4-methoxyphenyl)isoquinoline]
The melting point of the first is higher: 164 to 166 °C for the first, 134 to 136 °C for the second.

Compared with `CCN1CCN(c2nc(-c3ccc(OCCO)c(OCCO)c3)cc3ccccc23)CC1` (as salt: hydrochloride), `CCN1CCN(c2nc(-c3ccccc3OCCO)cc3ccccc23)CC1` (as salt: hydrochloride) [Example 18, 3-[2-(2-hydroxyethoxy)phenyl]-1-(4-ethylpiperazin-1-yl)isoquinoline hydrochloride] is higher in melting point: 130 to 132 °C for the first, 158 to 160 °C for the second.

Compared with `CCN1CCN(c2nc(-c3ccc(C4(CCO)CCOCC4)cc3)cc3ccccc23)CC1` (as salt: hydrochloride), `CCN1CCN(c2nc(-c3ccc(CO)cc3)cc3ccccc23)CC1` (as salt: hydrochloride) [Example 17, 1-(4-ethylpiperazin-1-yl)-3-(4-hydroxymethylphenyl)isoquinoline hydrochloride] is higher in melting point: 138 to 139 °C for the first, 145 to 147 °C for the second.

First: CCN1CCN(c2nc(-c3ccc(OCCCN)cc3)cc3ccccc23)CC1 (as salt: hydrochloride)
Second: CN1CCN(c2nc(-c3ccc(OCCO)cc3)cc3ccccc23)CC1 (as salt: hydrochloride) [Example 3, 1-(1-methylpiperazin-4-yl)-3-[4-(2-hydroxyethoxy)phenyl]isoquinoline]
The melting point of the first is higher: 173 to 176 °C for the first, 131 to 144 °C for the second.

Compared with `CCC(F)c1ccc(-c2cc3ccccc3c(N3CCN(CC)CC3)n2)cc1` (centres unmarked) (as salt: hydrochloride) [Example 5, 1-(4-ethylpiperazin-1-yl)-3-[4-(1-fluoropropyl)phenyl]isoquinoline Hydrochloride], `CCC(O)c1ccc(-c2cc3ccccc3c(N3CCN(CC)CC3)n2)cc1` (centres unmarked) (as salt: hydrochloride) [Example 19, 1-(4-ethylpiperazin-1-yl)-3-[4-(1-hydroxypropyl)phenyl]isoquinoline hydrochloride] is lower in melting point: 147 to 149 °C for the first, 143 to 144 °C for the second.

In the case of `CCN1CCN(c2nc(-c3cc(OC)cc(OC)c3)cc3ccccc23)CC1` (as salt: hydrochloride) [Example 15, 3-(3,5-dimethoxyphenyl)-1-(4-ethylpiperazin-1-yl)isoquinoline Dihydrochloride], the melting point is reported as 121 to 123 °C.

For `CCOc1ccc(-c2cc3ccccc3c(N3CCN(CC)CC3)n2)cc1.Cl.Cl`, the melting point was 197 to 198 °C (dec.).
With `COc1ccc(-c2cc3ccccc3c(N3CCN(C(C)C)CC3)n2)cc1` (as salt: hydrochloride) the melting point was 220 °C (dec.).
With `CCCCc1ccc(-c2cc3ccccc3c(N3CCN(CC)CC3)n2)cc1` (as salt: hydrochloride) the melting point was 190 to 192 °C (dec.).
For `CCCC(=O)c1ccc(-c2cc3ccccc3c(N3CCN(CC)CC3)n2)cc1` (as salt: hydrochloride), the melting point was 110 to 112.5 °C (dec.).
With `CCN1CCN(c2nc(-c3ccc(OC)cc3)c(Cl)c3ccccc23)CC1` (as salt: hydrochloride) the melting point was 200.5 to 201.5 °C (dec.).
